Experimental findings from ChEMBL document CHEMBL5537186 (J Med Chem, 2024) are described below.

The nature of data set [1]: Metabolic stability in human hepatocytes assessed as compound remaining measured after 60 mins. The conditions noted are these: read-out: Stability. Type of data set: ADME, cell-based, Hepatocyte.
Data set [2] can be described thus: Kinetic aqueous solubility of compound at pH 4.5. Type of data set: physicochemical. The conditions noted are these: read-out: Kinetic_solubility.
Data set [3] is described as follows: Lipophilicity, logD of compound at pH 7.4. The format is physicochemical. The note with it: buffer.
Data set [4] can be described thus: Kinetic aqueous solubility of compound at pH 7.4. The format is physicochemical. The conditions noted are these: read-out: Kinetic_solubility.

Converted amounts (≈) assume the structure as drawn.

The logD is the decadic logarithm of the distribution of all forms, ionised or not, between an organic phase and buffer at a given pH. Lower therefore signals lower lipophilicity. Turning to `Cc1ccc(NC(=O)N2CC[C@@H](CC(F)(F)F)C2)cc1-c1cc(OCCO)nc(N2CCOCC2)c1`, the remaining at 1 h in data set [1] is 19%. For the same compound, the solubility kinetic was 35 µM (≈ 17.8 µg/mL) in data set [2] and 39 µM (≈ 19.8 µg/mL) in data set [4]. In data set [3], the logD stood at 3.73.
In data set [3], `Cc1ccc(NC(=O)N2CC[C@H](CC(F)(F)F)C2)cc1-c1cc(OCCO)nc(N2CCOCC2)c1` returned a logD of 3.67. Further, in data set [4], the solubility kinetic came to 43 µM (≈ 21.9 µg/mL).
With `Cc1ccc(NC(=O)N2CCO[C@@H](C(F)(F)F)C2)cc1-c1cc(OCCO)nc(N2CCOCC2)c1`, the remaining at 1 h in data set [1] was found to be 54%. In data set [4], the solubility kinetic was 56 µM (≈ 28.6 µg/mL).
As to `Cc1ccc(NC(=O)N2CC[C@@H](CC(F)(F)F)C2)cc1-c1cc(O[C@@H](C)CO)nc(N2CCOCC2)c1`, the remaining at 1 h in data set [1] turned out to be 45%. The compound also yielded a log distribution coefficient (logD) in data set [3] of 3.84. Moreover, the solubility kinetic in data set [4] stood at 56 µM (≈ 29.3 µg/mL).
On to `Cc1ccc(NC(=O)N2CC[C@@H](C(F)(F)F)C2)cc1-c1cc(OCCO)nc(N2CCOCC2)c1`, for which the remaining at 1 h in data set [1] turned out to be 7%. In addition, the pH-dependent lipophilicity (logD) in data set [3] came out at 3.49. The solubility kinetic in data set [4] was found to be 83 µM (≈ 41 µg/mL).
For the compound `Cc1ccc(NC(=O)N2CC[C@@H](CC(F)(F)F)C2)cc1-c1cc(OCC(C)(C)O)nc(N2CCOCC2)c1`, the remaining at 1 h in data set [1] amounted to 62%. Besides, the logD in data set [3] was 3.86. In addition, the solubility kinetic in data set [4] worked out at 15 µM (≈ 8.05 µg/mL).
